Where a name gives a salt, the structure may show the parent alone.
target: T1, MCH1R (Homo sapiens, UniProt Q99705); assay: MCH1R calcium evaluation test (FDSS assay, inhibition of MCH-induced intracellular calcium increase); assay type: cell-based; settings: cells stably expressing non-endogenous active MCH1R; 50 nM MCH; Fluo-4 calcium, FDSS6000
T1 construct: IC50; other: cells stably expressing non-endogenous active MCH1R; 50 nM MCH; Fluo-4 calcium, FDSS6000; list of compounds i
Excerpt: MCH1R Calcium Evaluation Test
An FDSS assay can measure the intracellular calcium concentration and can evaluate the Gq-coupled receptor activity using the calcium concentration as an index. For example, the assay can determine whether an analyte is an antagonist, an inverse agonist or an agonist for a Gq-coupled receptor. The FDSS6000™ system (Hamamatsu Photonics K.K.) is designed to perform evaluation based on functionality such as measurement of intracellular calcium for high-throughput screening. Intracellular calcium release by activation of a Gq-coupled receptor can be fluorometrically measured by incorporating a calcium indicator (such as Fluo4) into cells. On the other hand, the assay cannot measure the activation of Gi- and Go-coupled receptors, because the activation is not associated with calcium signaling pathways.
Intracellular fluorescence can be rapidly and successively measured in a 96-well microplate or a 384-well microplate using a fluorometric imaging plate reader system. FDSS6000™ can simultaneously measure fluorescence in all wells sensitively, accurately and by seconds. This system is ideal for functional analysis in cells such as monitoring of an intracellular calcium flow generated within several seconds after activation of a Gq-coupled receptor.
On the day before the test, cells stably expressing non-endogenous active MCH1R were seeded into a 96-well microplate at 3×10^4 cells per well. 100 μL per well of a medium (Dulbecco's modified Eagle medium containing 10% fetal bovine serum, 2 mM glutamine, 1 mM sodium pyruvate and 0.5 mg/mL G418, pH 7.4) was used for culture. On the day of the test, the medium was removed and an assay buffer {Hank's balanced salt solution containing 20 mM HEPES, 0.5 mM probenecid, 0.05 mg/mL amaranth and 0.2% bovine serum albumin (BSA), pH 7.4} containing 2 μM Fluo-4-AM and 0.04% Pluronic F127 was added at 100 μL per well, followed by incubation in a 5% CO2 incubator at 37° C. for one hour. Thereafter, the buffer was removed and an assay buffer containing each concentration of the test compound was newly added at 150 μL per well, followed by incubation in a 5% CO2 incubator at 37° C. for 30 minutes. An assay buffer containing each concentration of MCH was added at 50 μL per well, and transient changes in the intracellular calcium concentration induced by MCH were monitored using FDSS6000™ at Ex. 488 nm and Em. 530 nm for 180 seconds. In testing the antagonistic activity of the analyte, MCH was added to a final concentration of 50 nM. An inhibition curve was prepared with various concentrations of the analyte, and the concentration of the analyte inhibiting 50% of the increase in intracellular calcium when 50 nM MCH was added (IC50 value) was calculated using data analysis software Origin Ver. 6.

SMILES	IC50 [nM]
COCc1ccc2ccc(CN3CCC(NC(=O)c4cccc(OC)c4)CC3)cc2c1 [Example 13, 3-Methoxy-N-(1-{[7-(methoxymethyl)-2-naphthyl]methyl}piperidin-4-yl)benzamide]	10.4
COc1cccc(C(=O)NC2CCN(Cc3ccc4ccc(CNCCN5CCCC5)cc4c3)CC2)c1 [Example 48, 3-Methoxy-N-{1-[(7-{[(2-pyrrolidin-1-ylethyl)amino]methyl}-2-naphthyl)methyl]piperidin-4-yl}benzamide]	9.68
COc1cccc(C(=O)NC2CCN(Cc3ccc4ccc(CNCCN(C)C)cc4c3)CC2)c1 [Example 49, N-(1-{[7-({[2-(Dimethylamino)ethyl]amino}methyl)-2-naphthyl]methyl}piperidin-4-yl)-3-methoxybenzamide]	7.08
COc1cccc(C(=O)NC2CCN(Cc3ccc4ccc(CNCCN)cc4c3)CC2)c1 [Example 64, N-{1-[(7-{[(2-Aminoethyl)amino]methyl}-2-naphthyl)methyl]piperidin-4-yl}-3-methoxybenzamide trihydrochloride]	7.14
COCCOCc1ccc2ccc(CN3CCC(NC(=O)c4cccc(C(C)=O)c4)CC3)cc2c1 [Example 90, 3-Acetyl-N-[1-({7-[(2-methoxyethoxy)methyl]-2-naphthyl}methyl)piperidin-4-yl]benzamide]	7.69
COc1cccc(C(=O)NC2CCN(Cc3ccc4ccc(CCO)cc4c3)CC2)c1 [Example 120, N-(1-{[7-(2-hydroxyethyl)-2-naphthyl]methyl}piperidin-4-yl)-3-methoxybenzamide]	7.41

Stronger by IC50, values ahead:

IC50 [nM]	SMILES
3.54	CCOCc1ccc2ccc(CN3CCC(NC(=O)c4ccc(F)c(Cl)c4)CC3)cc2c1 [Example 6, 3-chloro-N-(1-{[7-(ethoxymethyl)-2-naphthyl]methyl}piperidin-4-yl)-4-fluorobenzamide]
4.99	COCc1ccc2ccc(CN3CCC(NC(=O)c4cc(OC)cc(OC)c4)CC3)cc2c1 [Example 10, 3,5-Dimethoxy-N-(1-{[7-(methoxymethyl)-2-naphthyl]methyl}piperidin-4-yl)benzamide]
5.67	COCCOCc1ccc2ccc(CN3CCC(NC(=O)c4cccc(OC)c4)CC3)cc2c1 [Example 26, 3-Methoxy-N-[1-({7-[(2-methoxyethoxy)methyl]-2-naphthyl}methyl)piperidin-4-yl]benzamide]
6.11	COc1cccc(C(=O)NC2CCN(Cc3ccc4ccc(COCCN5CCCC5)cc4c3)CC2)c1 [Example 36, 3-Methoxy-N-[1-({7-[(2-pyrrolidin-1-ylethoxy)methyl]-2-naphthyl}methyl)piperidin-4-yl]benzamide]
4.89	COc1cccc(C(=O)NC2CCN(Cc3ccc4ccc(COCCN(C)C)cc4c3)CC2)c1 [Example 37, N-{1-[(7-{[2-(dimethylamino)ethoxy]methyl}-2-naphthyl)methyl]piperidin-4-yl}-3-methoxybenzamide]
6.51	CNCCNCc1ccc2ccc(CN3CCC(NC(=O)c4cccc(OC)c4)CC3)cc2c1 [Example 67, 3-Methoxy-N-(1-{[7-({[2-(methylamino)ethyl]amino}methyl)-2-naphthyl]methyl}piperidin-4-yl)benzamide trihydrochloride]

— patent publication US20100081825A1, “1-NAPHTHYL ALKYLPIPERIDINE DERIVATIVE” (Taisho Pharmaceutical Co Ltd, priority 2006, published 2010)
